Each block holds one molecule with its values, some of them ahead of it.
Experiments:
[1] = Amount of medicine permeated in virtual skin system; type: in vitro ADME; details: 10 mmol/l, 25° C., no voltage
Protocol: (4) Amount of Medicine Permeated in Virtial Skin System
(§1) An aqueous solution containing 10% by mass of a polyvinyl alcohol (NH-20 produced by The Nippon Synthetic Chemical Industry Co., Ltd.) was coated on a filter paper (a chemical analysis filter paper 5C produced by Advantec). The amount of the solution coated was such that the amount of the polyvinyl alcohol after solvent removal was 2 mg/cm^2. Then, the filter paper was allowed to stand at room temperature for 24 hours or more to vaporize the water, whereby was obtained a virtual skin. […] An aqueous solution containing a given concentration of a medicine was filled in a medicine solution chamber 22; and an aqueous solution containing […] by mass of sodium chloride was filled in a virtual skin chamber 23. Then, a permeation test was conducted at 25° C. for a given period of time with the inside of the medicine solution chamber 22 and the inside of the virtual skin chamber 23 being stirred. Right after the completion of the test, the solution inside the virtual skin chamber 23 was withdrawn and used as a sample for measurement. The amount of medicine in the sample was determined using liquid chromatography.

[2] = Amount of medicine permeated in living body skin system; type: in vitro ADME, miniature pig (Yucatane Micropig); details: 10 mmol/l, miniature pig back skin
Protocol: as §1
(5) Amount of Medicine Permeated in Living Body Skin System
The amount of the medicine permeated was measured in the same manner as in the virtual skin system, by replacing the virtual skin (a filter paper coated with a polyvinyl alcohol) with a living body skin, i.e. the back skin of miniature pig (Yucatane Micropig, 5 month-old, female).

[3] = magnesium salt of ascorbic acid-phosphoric acid ester, duration of permeation 1 hr
[4] = magnesium salt of ascorbic acid-phosphoric acid ester, duration of permeation 2 hr
[5] = magnesium salt of ascorbic acid-phosphoric acid ester, duration of permeation 3 hr
[6] = sodium ascorbate, duration of permeation 3 hr

SMILES: O=C1O[C@H]([C@@H](O)CO)C([O-])=C1O.[Na+] [Comparative Example 4, sodium ascorbate]
- Amount of permeation [1, 6]: 5.2 μmol/cm^2

SMILES: O=C1O[C@H]([C@@H](O)CO)C([O-])=C1O.[Na+] [compound 8, sodium ascorbate]
- Amount of permeation ([2]; sodium ascorbate, duration of permeation 1 hr): 0.003 μmol/cm^2
- Amount of permeation ([2]; sodium ascorbate, duration of permeation 2 hr): 0.005 μmol/cm^2
- Amount of permeation [2, 6]: 0.007 μmol/cm^2

The next lines start with the values.

- Amount of permeation ([1]; histamine dihydrochloride, duration of permeation 3 hr): 2.5 μmol/cm^2
SMILES: Cl.Cl.NCCc1c[nH]cn1 [compound 6, histamine dihydrochloride]

- Amount of permeation [1, 3]: 0.6 μmol/cm^2
- Amount of permeation [1, 4]: 1.3 μmol/cm^2
- Amount of permeation [1, 5]: 2.0 μmol/cm^2
SMILES: O=C1O[C@H]([C@@H](O)CO)C([O-])=C1OP(=O)([O-])[O-].O=C1O[C@H]([C@@H](O)CO)C([O-])=C1OP(=O)([O-])[O-].[Mg+2].[Mg+2].[Mg+2] [Comparative Example 2, magnesium salt of ascorbic acid-phosphoric acid ester]

- Amount of permeation [2, 3]: 0.010 μmol/cm^2
- Amount of permeation [2, 4]: 0.013 μmol/cm^2
- Amount of permeation [2, 5]: 0.015 μmol/cm^2
SMILES: O=C1O[C@H]([C@@H](O)CO)C([O-])=C1OP(=O)([O-])[O-].O=C1O[C@H]([C@@H](O)CO)C([O-])=C1OP(=O)([O-])[O-].[Mg+2].[Mg+2].[Mg+2] [Comparative Example 9, magnesium salt of ascorbic acid-phosphoric acid ester]

Source: patent US20060198879A1, “Patch material for ionic medicine administration” (Tokuyama Corporation, priority 2003, published 2006)
